Molecules are shown by their SMILES.

The subject of the test is MOG35-55-induced experimental autoimmune encephalomyelitis (EAE). Description: MOG35-55-induced experimental autoimmune encephalomyelitis (EAE) in C57BL/6 mice. The test is classed as in vivo. Conditions: male C57BL/6 mice. Here is the method: Assessment and Comparison of the Efficacy of Compounds of the Invention and DMF (Reference) in MOG35-55-Induced Experimental Autoimmune Encephalomyelitis (EAE) in C57BL/6 Mice
male C57BL/6 mice, 12 weeks old; 10 animals per treatment group;
Day 1—subcutaneous injection of MOG35-55, suspended in complete Freund's adjuvans and intraperitoneal injection of pertussis toxin.
Day 3—intraperitoneal injection of pertussis toxin.
Dimethylfumarate and test substances or vehicle only were administered via oral and intravenous route.
For oral administration, test substances were dissolved or suspended in 0.5% hydroxyethylcellulose (dissolved in 50 mM potassium dihydrogenphosphate, pH 5.0). Drug concentration in dose formulations: 11.54 mM;
Dose volume: 10 ml/kg body weight;
Start of treatment: Day 3
For intravenous administration, stock solutions were prepared in DMSO and serially diluted with phosphate buffered saline.
Observations were recorded on day 2, 4, 6, 8, 10, 12, 14 and 16.
Clinical score: grade 0-10; 0 (=no impairments), 1 (normal movement; limp tail: proximal 2/3 of the tail is limp and droopy), 2 (normal movement; whole tail is limp; 3 (wobbly walk; absent righting reflex), 4 (gait ataxia), 5 (milad paraparesis), 6 (moderate paraparesis), 7 (severe paraparesis or paraplegia), 8 (tetraparesis), 9 (moribund), 10 (death).

Turning to `COC(=O)/C=C/C(=O)OCCN1CCSCC1` [Ia], where the note is “FIG. 4”, the body weight entry is recorded as “substantially maintained”. For the same compound, the clinical score entry (grade 0-10, FIG. 3, with reference to DMF) is “reduced with reference to DMF”.

The values are drawn from patent US20160214948A1, “PRODRUGS OF MONOMETHYL FUMARATE (MMF)” (RATIOPHARM GMBH, priority 2013, published 2016).
